Experimental data published in the NIST ThermoML archive (doi:10.1021/je900370q).
Numbers after ± are expanded uncertainties.

Conditions: Crystal; DTA

Going from `COc1ccc(C(=O)/C=C/c2ccc(-c3cccc([N+](=O)[O-])c3)o2)cc1` to `O=C(/C=C/c1ccc(-c2cccc([N+](=O)[O-])c2)o1)c1ccc(Br)cc1`, the Normal melting temperature rises from 141.00 ± 1 °C to 160.00 ± 1 °C.

Going from `O=C(/C=C/c1ccc(-c2cccc([N+](=O)[O-])c2)o1)c1ccc([N+](=O)[O-])cc1` to `O=C(/C=C/c1ccc(-c2cccc([N+](=O)[O-])c2)o1)c1cccc([N+](=O)[O-])c1`, the Normal melting temperature falls from 218.00 ± 1 °C to 180.00 ± 1 °C.

Compared with `O=C(/C=C/c1ccc(-c2cccc([N+](=O)[O-])c2)o1)c1ccco1`, `O=C(/C=C/c1ccc(-c2cccc([N+](=O)[O-])c2)o1)c1ccccc1` [(E)-3-(5-(3-nitrophenyl)furan-2-yl)-1-phenylprop-2-en-1-one] is lower in Normal melting temperature: 178.00 ± 1 °C for the first, 142.00 ± 1 °C for the second.

Compared with `Nc1ccc(C(=O)/C=C/c2ccc(-c3cccc([N+](=O)[O-])c3)o2)cc1`, `O=C(/C=C/c1ccc(-c2cccc([N+](=O)[O-])c2)o1)c1ccc(O)cc1` is lower in Normal melting temperature: 171.00 ± 1 °C for the first, 152.00 ± 1 °C for the second.

`O=C(/C=C/c1ccc(-c2cccc([N+](=O)[O-])c2)o1)c1cc2ccccc2oc1=O` and `O=C(/C=C/c1ccc(-c2cccc([N+](=O)[O-])c2)o1)c1ccc(Cl)cc1` are within error of each other in Normal melting temperature: 172.00 ± 1 °C for the first, 170.00 ± 1 °C for the second.
